Reference: US20200407717A1, “METHODS OF MODULATING ANTISENSE ACTIVITY” (Ionis Pharmaceuticals, Inc., priority 2018, published 2020)
e = 2'-O-(2-methoxyethyl) (MOE); d = 2'-deoxy (DNA)

Test system: Malat1 RNA
Assay: Antisense activity by RT-qPCR, Malat1, A431 cells
Assay type: cell-based
Experimental: A431 cells were grown at 10,000 cells per well and pre-treated with a variety of growth factors to determine if the addition of exogenous growth factors affects antisense activity or uptake of modified antisense oligonucleotides in a cell. The growth factors used were EGF, insulin growth factor (IGF), transforming growth factor (TGF), […] (VEGF), hepatocyte growth factor (HGF), platelet growth factor (PGF) and fibroblasts growth factor (FGF). To test antisense activity, cells were treated for 4 hours with a growth factor or vehicle alone, and then treated with compound no. 25690 (complementary to Drosha), compound no. 395254 (complementary to Malat1), or vehicle alone. RNA was isolated from the cells and Drosha or Malat1 RNA levels were measured by RT-qPCR. Human primer probe set 13816 (forward sequence […], designated herein as SEQ ID NO: 3; reverse sequence […], designated herein as SEQ ID NO: 4; probe sequence […], designated herein as SEQ ID NO: 5) was used to measure Drosha mRNA levels and primer probe set RTS2736 (forward sequence […], designated herein as SEQ ID NO: 6; reverse sequence […], designated herein as SEQ ID NO: 7; probe sequence TGCCACATCGCCACCCCGT, designated herein as SEQ ID NO: 8) was used to measure Malat1 RNA levels. Drosha and Malat1 RNA levels were normalized to total RNA content, as measured by RIBOGREEN®. Results are presented in the tables below as normalized RNA levels, relative to untreated control cells.
A431 cells were treated with EGF or TGF at 200 ng/mL in the presence or absence of 1 μM of the EGFR tyrosine kinase inhibitor PD174265. The cells were then treated with compound no. 25690 or compound no. 395254 as in Example 8. Total RNA was isolated and analyzed by RT-qPCR, as in Example 8.
Following siRNA treatment, cells were treated with compound no. 25690 or compound no. 395254 in the presence or absence of EGF. 16 hours after treatment with a PS-ASO with or without EGF, cells were harvested, and RNA levels were analyzed via RT-qPCR as in Example 8.

AGGAAGGAAGCTGGCGATCT (sugars from the 5' end e5 d10 e5, all phosphorothioate, methylation of C not given here) [compound 25690]
Malat1 RNA (% Control) (2.0 nM, Control, Table 19): 100.0 % Control
Malat1 RNA (% Control) (2.0 nM, EGF+PD174265): 100.0 % Control
Malat1 RNA (% Control) (2.0 nM, EGF, Table 19): 100.0 % Control
Malat1 RNA (% Control) (3.9 nM, Control, Table 19): 99.2 % Control
Malat1 RNA (% Control) (3.9 nM, EGF+PD174265): 110.0 % Control
Malat1 RNA (% Control) (3.9 nM, EGF, Table 19): 105.0 % Control
Malat1 RNA (% Control) (7.8 nM, Control, Table 19): 98.2 % Control
Malat1 RNA (% Control) (7.8 nM, EGF+PD174265): 97.2 % Control
Malat1 RNA (% Control) (7.8 nM, EGF, Table 19): 78.2 % Control
Malat1 RNA (% Control) (15.6 nM, Control, Table 19): 72.3 % Control
Malat1 RNA (% Control) (15.6 nM, EGF+PD174265): 61.2 % Control
Malat1 RNA (% Control) (15.6 nM, EGF, Table 19): 60.1 % Control
Malat1 RNA (% Control) (31.3 nM, Control, Table 19): 64.4 % Control
Malat1 RNA (% Control) (31.3 nM, EGF+PD174265): 59.8 % Control
Malat1 RNA (% Control) (31.3 nM, EGF, Table 19): 40.5 % Control
Malat1 RNA (% Control) (62.5 nM, Control, Table 19): 59.6 % Control
Malat1 RNA (% Control) (62.5 nM, EGF+PD174265): 50.2 % Control
Malat1 RNA (% Control) (62.5 nM, EGF, Table 19): 43.9 % Control
Malat1 RNA (% Control) (125 nM, Control, Table 19): 46.2 % Control
Malat1 RNA (% Control) (125 nM, EGF+PD174265): 39.6 % Control
Malat1 RNA (% Control) (125 nM, EGF, Table 19): 25.9 % Control
Malat1 RNA (% Control) (250 nM, Control, Table 19): 36.1 % Control
Malat1 RNA (% Control) (250 nM, EGF+PD174265): 45.6 % Control
Malat1 RNA (% Control) (250 nM, EGF, Table 19): 18.9 % Control
Malat1 RNA (% Control) (500 nM, Control, Table 19): 35.5 % Control
Malat1 RNA (% Control) (500 nM, EGF+PD174265): 42.5 % Control
Malat1 RNA (% Control) (500 nM, EGF, Table 19): 14.5 % Control
Malat1 RNA (% Control) (1000 nM, Control, Table 19): 22.3 % Control
Malat1 RNA (% Control) (1000 nM, EGF+PD174265): 22.3 % Control
Malat1 RNA (% Control) (1000 nM, EGF, Table 19): 15.2 % Control
Malat1 RNA (% Control) (2000 nM, Control, Table 19): 19.2 % Control
Malat1 RNA (% Control) (2000 nM, EGF+PD174265): 15.3 % Control
Malat1 RNA (% Control) (2000 nM, EGF, Table 19): 12.4 % Control
Malat1 RNA (% Control) (4000 nM, Control, Table 19): 17.2 % Control
Malat1 RNA (% Control) (4000 nM, EGF+PD174265): 13.2 % Control
Malat1 RNA (% Control) (4000 nM, EGF, Table 19): 10.2 % Control
IC50 (Control, Table 19): 43 ± 5.7 nM
IC50 (EGF 200 ng/mL + 1 μM PD174265, Table 19): 47 ± 5.3 nM
IC50 (EGF 200 ng/mL, Table 19): 19 ± 3 nM
